Measurements taken from PMC4912613, “A broad analysis of resistance development in the malaria parasite” (Nature Communications, 2016).
Read-outs that look alike come from different tables or passages of the source.

Tests used:
[1] = tested on: P. berghei exoerythrocytic forms; assay: Liver-stage P. berghei hepatocyte invasion and development assay (luminescence, HepG2); type: cell-based, Plasmodium berghei; details: for EC50: Plasmodium berghei, HepG2, 48 h, read-out: Liver Stage EC50; for EC50 fold shift compared to asexual stage: Liver Stage EC50: liver stage EC50 / 3D7 EC50
In short: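 HepG2 cells were pretreated with compound for 2 h, then infected with fresh P. berghei sporozoites. After 48 h, exoerythrocytic-form viability was read by BrightGlo luminescence; hepatocyte toxicity was tested in parallel. EC50s came from 12-point curves run in duplicate, starting at 5 μM or 50 μM.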

[2] = tested on: DHODH (E182D, parent 3D7); assay: Cross-resistance EC50 assay, DHODH; type: cell-based; details: Plasmodium falciparum, SYBR green 72 hour assay, synchronized parasites, 384-well format
Source text: (§1) To evaluate potential overlapping activity against known antimalarial drug targets, we performed dose-response studies with each compound against our assembled set of drug-resistant lines and their corresponding parents, in an asexual blood stage proliferation assay (Table 1). Comparisons were made to the drug-sensitive strain 3D7 when a parent was unavailable (TM90C2A, W2 and Dd2). As laboratories conducted EC50 assays with different strains and protocols, all comparisons were made between assays from the same laboratory and under the same assay conditions. Compounds displaying >5-fold EC50 shifts relative to the parent or sensitive strain were flagged as having potentially non-novel targets. Average fold shifts per strain ranged from 0.82 to 2.34, with a median of 1.23 indicating there was not common resistance to any one resistant clone. No resistance patterns were observed when classifying the compounds based on chemical structure, but this was not surprising given the diversity of compounds chosen. On the other hand, given that these confirmed compounds were derived from larger unconfirmed hit lists to which some filtration criteria may have been applied (for example, elimination of obvious dihydrofolate reductase inhibitors[32]), some[10][11][12][13] pre-existing bias may exist in the set. […]
(§2) Alternatively, a SYBR Green-based proliferation approach was used for the 72-h assay, as previously described. Briefly, a culture of either synchronized or asynchronous parasitized RBCs (0.3% parasitemia and 4% haematocrit) in screening medium (identical to supplemented medium above except no serum was added) was exposed to serial drug dilutions. Plates were incubated at 37 °C and gassed with 93% N2, 4% CO2 and 3% O2 for 72 h. Following incubation, 10 × SYBR Green I (Invitrogen; supplied in 10,000 × concentration) in lysis buffer ([…], 5 mM EDTA, 0.16% Saponin wt per vol and 1.6% Triton X vol per vol) was added to the wells and the plates were incubated overnight at room temperature before plate reading. EC50 assays were repeated three times, taking the average EC50 value from each assay set, and removing any outliers using a single iteration of Grubbs' test, eliminating values with z-scores above the critical z-value (α=0.05). The raw EC50 values for synchronized parasites assayed in a 384-well format are listed in Supplementary Data 4. The raw EC50 values for asynchronous parasites assayed in a 96 or 1536-well format are listed in Supplementary Data 5.
(§3) EC50 values for each strain were compared with those of the corresponding parent strain to determine fold-shift changes and identify resistance. To minimize the cause variance between assays, all comparisons were conducted between strains assayed under identical conditions. A one-way ANOVA followed by a Dunnet's post-test was conducted in GraphPad Prism to identify significant changes between the parent and resistant strain.

[3] = tested on: ProRS (prolyl t-RNA synthetase L482H, parent Dd2); assay: Cross-resistance EC50 assay, ProRS; type: cell-based; details: Plasmodium falciparum, SYBR green 72 hour assay, synchronized parasites, 384-well format
Source text: as §1, §2, §3

[4] = tested on: CYTbQi (cytb G33A, parent Dd2); assay: Cross-resistance EC50 assay, CYTbQi; type: cell-based; details: Plasmodium falciparum, SYBR green 72 hour assay, synchronized parasites, 384-well format
Source text: as §1, §2, §3

P. falciparum = assay: Rate of killing (parasite viability) assay; type: cell-based, Plasmodium falciparum; details: profile compared with chloroquine, pyrimethamine, atovaquone; 48 h treatment
In short: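 Parasites exposed to compound for 48 h, then washed and given fresh labelled erythrocytes; invasion used as viability surrogate. Double-stained erythrocytes (RBC plus parasite DNA label) counted to give percent survival; time-course profiles benchmarked against chloroquine, pyrimethamine and atovaquone.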

[5] = tested on: Stage 5 gametocytes from P. falciparum NF54; assay: Late-stage (stage V) gametocyte survival assay, MitoTracker; type: cell-based, Plasmodium falciparum; details: for EC50: Plasmodium falciparum, read-out: Stage 5 Gametocyte EC50; for EC50 fold shift compared to asexual stage: Stage 5 Gametocyte EC50: gametocyte EC50 / 3D7 EC50
In short: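 Synchronized P. falciparum NF54 stage V gametocytes were exposed to compound (1.25 μM or 12.5 μM) for 72 h. MitoTracker Red CMXRos (500 nM final) was then added with saponin to lyse RBCs, and plates were imaged by high-content fluorescence. The readout was the number of metabolically active gametocytes per well.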

Row | SMILES | EC50 ([1]; P. berghei sporozoites) [nM] | EC50 ([2]; strain DHODH (3D7 parent)) [nM] | EC50 ([3]; strain ProRS (Dd2 parent)) [nM] | EC50 ([4]; strain CYTbQi (Dd2 parent)) [nM] | Killing Rate (P. falciparum) | EC50 ([5]; P. falciparum NF54, 72 h) [nM] | EC50 [1] [nM] | EC50 ([5]; NF54, 72 h) [nM] | EC50 fold shift compared to asexual stage: Liver Stage EC50 [1] | EC50 fold shift compared to asexual stage: Stage 5 Gametocyte EC50 [5] | EC50 ([2]; 3D7, DHODH strain) [nM] | EC50 ([3]; DD2, ProRS strain) [nM] | EC50 ([4]; DD2, CYTbQi strain) [nM]
1 | COc1cc2cc(C(=O)Nc3ccccc3)c(N)nc2cc1OC [MMV006767] | > 50000 | 519 | 1730 | 1930 | PYR (moderate) | > 12500 |  |  |  |  |  |  | 
2 | Cl.c1ccc2c(NCCCCCCNc3c4c(nc5ccccc35)CCCC4)c3c(nc2c1)CCCC3 [MMV019555] |  | 56 | 230 | 227 | CQ (fast) |  | 319 | 451 |  |  |  |  | 
3 | OC(CNC1CCCCC1)Cn1c2ccccc2c2ccccc21 (centres unmarked) [MMV009063] | > 5000 | 715 | 144 | 257 | CQ (fast) | > 1250 |  |  | > 6.3 | > 1.5 |  |  | 
4 | CN(C)CCCNCc1ccc(-c2ccc(Cl)c(Cl)c2)o1 [MMV673964] | 8990 |  |  |  | CQ (fast) | 1130 |  |  | 14.81 | 1.86 | 337 | 315 | 319
5 | CCCN(CCC)CC(O)COc1ccccc1C(=O)Nc1ccccc1 (centres unmarked) [MMV006455] | > 5000 | 2830 | 897 | 200 | CQ (fast) | > 1250 |  |  | > 9.4 | > 2.3 |  |  | 
6 | Brc1ccc(Nc2nc3ccccc3nc2Nc2ccc(Br)cc2)cc1 [MMV007224] | 514 | 606 | 298 | 327 | ATQ (slow) | 2520 |  |  | 2.32 | 11.35 |  |  | 
7 | CCOc1cc2c(cc1OCC)C(c1cc(Cl)ccc1O)NCC2 (centres unmarked) [MMV000478] | > 5000 | 1450 | 622 | 817 | CQ (fast) | > 1250 |  |  | > 5 | > 1.25 |  |  | 
8 | O=C(NCC(CCCN1CCC(c2c[nH]c3ccccc23)CC1)c1ccccc1)Nc1ccc(Cl)c(Cl)c1 (centres unmarked) [MMV029272] | 1800 | 148 | 592 | 619 | PYR (moderate) | 2230 |  |  | 13.22 | 16.40 |  |  | 
9 | Nc1ncc(-c2cn[nH]c2)cc1-c1nc2ccc(F)cc2[nH]1 [MMV023367] | 611 | 414 | 517 | 626 | CQ (fast) | 6680 |  |  | 2.02 | 22.12 |  |  | 
10 | CC(C)c1cccc(C(NC(=O)C2Cc3ccccc3CN2C(=O)c2cccc(N3CCOCC3)c2)C2CCCC2)c1 (centres unmarked) [MMV028038] | 5360 | 1270 | 297 | 339 | ATQ (slow) | 1180 |  |  | 9.92 | 2.19 |  |  | 
11 | CN1CCN(c2ccc(Nc3c4ccccc4nc4ccccc34)cc2)CC1 [MMV006172] | 2060 | 50 | 125 | 107 | CQ (fast) | 919 |  |  |  |  |  |  | 
12 | CCCCCCCN(Cc1ccc(OC(C)(C)C(=O)OCC)cc1)C(=O)Nc1ccc(Cl)cc1OCC [MMV021735] | 2690 | 460 | 269 | 223 | ATQ (slow) | > 11600 |  |  | 7.03 | > 32 |  |  | 
13 | COc1ccc(N2CCN(C(CNC(=O)C3CCCCC3)c3ccc4c(c3)OCO4)CC2)cc1 (centres unmarked) [MMV019662] | 18900 | 860 | 481 | 448 | ATQ (slow) | 3680 |  |  | 55.47 | 10.82 |  |  | 
14 | c1cc(-c2cnc3ccc(-c4ccc(N5CCOCC5)cc4)nn23)ccn1 [MMV668311] | 2250 | 42 | 62 | 66 | CQ (fast) | 879 |  |  | 46.90 | 18.31 |  |  | 
15 | COc1ccc(C(=O)C2CC2c2ccc(Cl)cc2)cc1 (centres unmarked) [MMV665924] | > 5000 | 927 | 966 | 1130 | CQ (fast) | > 1250 |  |  | > 6 | > 1.5 |  |  | 
16 | CCC(C)NCC(O)(c1ccc(Cl)cc1)c1ccc(Cl)cc1 (centres unmarked) [MMV665928] | > 5000 | 878 | 360 | 492 | CQ (fast) | > 1250 |  |  | > 10 | > 2.5 |  |  | 
